Like-named read-outs stand apart in the source and are kept apart here.
Experiments:
Type in all cases: biochemical
Tyro3 = target: T1, Tyro3 (Homo sapiens, UniProt Q06418); experiment: Tyro3 kinase inhibition IC50
T1 sequence (Q06418 41-890): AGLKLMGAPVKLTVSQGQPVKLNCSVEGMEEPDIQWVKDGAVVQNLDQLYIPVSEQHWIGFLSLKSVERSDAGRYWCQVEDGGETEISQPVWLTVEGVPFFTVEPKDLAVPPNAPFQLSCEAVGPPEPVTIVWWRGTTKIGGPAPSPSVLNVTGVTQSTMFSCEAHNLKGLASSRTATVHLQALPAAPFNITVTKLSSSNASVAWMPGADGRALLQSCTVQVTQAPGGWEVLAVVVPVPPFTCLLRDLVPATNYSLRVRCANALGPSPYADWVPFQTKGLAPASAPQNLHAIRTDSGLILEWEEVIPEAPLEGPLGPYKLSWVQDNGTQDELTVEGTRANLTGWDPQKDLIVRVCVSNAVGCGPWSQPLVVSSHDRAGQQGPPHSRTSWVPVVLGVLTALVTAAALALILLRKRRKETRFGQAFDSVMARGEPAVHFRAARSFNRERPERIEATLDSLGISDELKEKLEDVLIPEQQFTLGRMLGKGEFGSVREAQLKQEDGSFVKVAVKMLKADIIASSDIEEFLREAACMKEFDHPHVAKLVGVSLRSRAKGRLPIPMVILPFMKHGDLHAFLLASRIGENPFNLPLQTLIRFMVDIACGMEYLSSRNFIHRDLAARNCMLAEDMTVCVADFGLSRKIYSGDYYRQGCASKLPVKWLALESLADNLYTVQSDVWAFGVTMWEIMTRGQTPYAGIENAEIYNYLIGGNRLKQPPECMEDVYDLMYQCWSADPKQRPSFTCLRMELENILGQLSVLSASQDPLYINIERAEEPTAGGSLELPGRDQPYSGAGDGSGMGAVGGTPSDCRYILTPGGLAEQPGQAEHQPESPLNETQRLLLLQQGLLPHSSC

Axl = target: T2, Axl (Homo sapiens, UniProt P30530); experiment: Axl kinase inhibition IC50
T2 sequence (P30530 26-894): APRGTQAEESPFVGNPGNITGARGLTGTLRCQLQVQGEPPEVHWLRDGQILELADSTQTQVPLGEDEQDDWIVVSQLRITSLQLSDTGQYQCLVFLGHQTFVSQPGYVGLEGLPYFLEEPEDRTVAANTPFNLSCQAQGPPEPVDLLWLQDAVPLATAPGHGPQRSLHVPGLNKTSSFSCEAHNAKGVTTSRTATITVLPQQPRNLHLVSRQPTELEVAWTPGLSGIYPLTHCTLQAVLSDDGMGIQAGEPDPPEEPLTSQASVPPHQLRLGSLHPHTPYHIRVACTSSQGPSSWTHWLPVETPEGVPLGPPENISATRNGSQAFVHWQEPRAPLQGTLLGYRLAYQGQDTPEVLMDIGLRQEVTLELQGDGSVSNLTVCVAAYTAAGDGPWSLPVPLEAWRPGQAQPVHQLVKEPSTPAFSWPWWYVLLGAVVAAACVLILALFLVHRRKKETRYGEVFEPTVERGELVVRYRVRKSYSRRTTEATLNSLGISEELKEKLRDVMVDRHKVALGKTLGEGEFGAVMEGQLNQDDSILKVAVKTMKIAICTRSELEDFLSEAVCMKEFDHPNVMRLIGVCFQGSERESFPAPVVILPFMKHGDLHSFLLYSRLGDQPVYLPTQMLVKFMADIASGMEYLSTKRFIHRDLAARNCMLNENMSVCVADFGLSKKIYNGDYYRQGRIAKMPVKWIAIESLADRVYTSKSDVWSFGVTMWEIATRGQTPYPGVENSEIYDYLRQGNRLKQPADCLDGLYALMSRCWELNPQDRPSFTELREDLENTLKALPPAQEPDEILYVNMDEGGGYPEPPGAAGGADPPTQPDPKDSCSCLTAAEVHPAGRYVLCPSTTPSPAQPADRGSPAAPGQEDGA

Mer = target: T3, Mer (Homo sapiens, UniProt Q12866); experiment: Mer kinase inhibition IC50; settings: read-out: Mer IC50
T3 sequence (Q12866 21-999): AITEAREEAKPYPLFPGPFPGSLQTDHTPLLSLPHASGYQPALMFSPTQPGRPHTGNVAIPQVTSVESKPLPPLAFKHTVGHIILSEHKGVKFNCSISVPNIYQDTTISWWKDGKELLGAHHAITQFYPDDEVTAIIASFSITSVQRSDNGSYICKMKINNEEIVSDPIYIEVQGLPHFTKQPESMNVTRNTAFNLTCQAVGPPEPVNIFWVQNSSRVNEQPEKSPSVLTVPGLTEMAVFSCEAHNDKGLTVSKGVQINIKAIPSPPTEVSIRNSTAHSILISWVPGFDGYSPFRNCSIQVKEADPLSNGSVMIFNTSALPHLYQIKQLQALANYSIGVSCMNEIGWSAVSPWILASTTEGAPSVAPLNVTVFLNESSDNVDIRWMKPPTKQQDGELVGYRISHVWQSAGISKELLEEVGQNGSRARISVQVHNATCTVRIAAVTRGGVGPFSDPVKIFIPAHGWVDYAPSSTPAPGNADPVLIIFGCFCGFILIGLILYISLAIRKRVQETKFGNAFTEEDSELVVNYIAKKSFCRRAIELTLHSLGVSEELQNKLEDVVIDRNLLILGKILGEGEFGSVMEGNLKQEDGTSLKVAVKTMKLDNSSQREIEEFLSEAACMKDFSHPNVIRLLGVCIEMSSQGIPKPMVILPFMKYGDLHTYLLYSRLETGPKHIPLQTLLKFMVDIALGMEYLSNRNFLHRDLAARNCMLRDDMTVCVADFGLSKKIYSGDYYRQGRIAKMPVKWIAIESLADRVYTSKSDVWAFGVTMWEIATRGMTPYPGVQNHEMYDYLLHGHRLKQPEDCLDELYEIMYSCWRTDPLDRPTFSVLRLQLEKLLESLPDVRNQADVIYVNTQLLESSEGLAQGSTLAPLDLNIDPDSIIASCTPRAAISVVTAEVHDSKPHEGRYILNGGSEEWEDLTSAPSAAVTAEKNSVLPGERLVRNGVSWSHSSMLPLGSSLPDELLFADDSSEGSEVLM

| SMILES | IC50 (Tyro3; Table 3, read-out: Tyro3 IC50) | IC50 (Axl; Table 3) | IC50 (Mer; Table 3) | IC50 (Tyro3; Table 2, read-out: Tyro3 IC50) | IC50 (Axl; Table 2) | IC50 (Mer; Table 2) | other results |
| --- | --- | --- | --- | --- | --- | --- | --- |
| CC(C)C(=O)Nc1ccnc(C#Cc2ccc(Nc3ncc(-c4ccc(CN5CCN(C)CC5)cc4)c(N[C@H]4CC[C@H](O)CC4)n3)cc2F)c1 [UNC4045A] | < 10 nM | < 10 nM | < 10 nM | – | – | – | – |
| CC[C@H](N)C(=O)N1CC=C(c2ccc(Nc3ncc(-c4ccccn4)c(N[C@H]4CC[C@H](O)CC4)n3)cc2)CC1 [UNC4403A] | – | – | – | 100 to 1000 nM | 1000 to 30000 nM | 100 to 1000 nM | – |
| CN1CCN(Cc2ccc(-c3cnc(Nc4ccc(C#Cc5cc(N)ccn5)cc4)nc3N[C@H]3CC[C@H](O)CC3)cc2)CC1 [UNC3869A] | 100 to 1000 nM | 1000 to 30000 nM | 10 to 100 nM | – | – | – | – |
| O[C@H]1CC[C@H](Nc2nc(Nc3ccc(C4=CCCNC4)cc3)ncc2-c2ccccn2)CC1 [UNC5113A] | – | – | – | 100 to 1000 nM | 100 to 1000 nM | 10 to 100 nM | – |
| CN1CCN(Cc2ccc(-c3cnc(Nc4ccc(C#Cc5cc(NC(=O)c6ccccc6)ccn5)cc4)nc3N[C@H]3CC[C@H](O)CC3)cc2)CC1 [UNC3868A] | 10 to 100 nM | 10 to 100 nM | < 10 nM | – | – | – | – |
| CN1CCC(c2ccc(Nc3ncc(-c4ccccn4)c(NC4CCOCC4)n3)cc2)CC1 [UNC5134A] | – | – | – | 100 to 1000 nM | 1000 to 30000 nM | 100 to 1000 nM | – |
| O[C@H]1CC[C@H](Nc2nc(Nc3ccc(C4=CCCN(C5CCC5)C4)cc3)ncc2-c2ccccn2)CC1 [UNC5070A] | – | – | – | 100 to 1000 nM | 1000 to 30000 nM | 100 to 1000 nM | – |
| CC(C)C(=O)Nc1ccnc(C#Cc2ccc(Nc3ncc(-c4ccc(CN5CCN(C)CC5)cc4)c(N[C@H]4CC[C@H](O)CC4)n3)c(Cl)c2)c1 [UNC4046A] | 10 to 100 nM | < 10 nM | 10 to 100 nM | – | – | – | – |
| CC(C)C(=O)Nc1ccnc(C#Cc2ccc(Nc3ncc(-c4ccncc4)c(N[C@H]4CC[C@H](O)CC4)n3)cc2)c1 [UNC4043A] | < 10 nM | 10 to 100 nM | < 10 nM | – | – | – | – |
| CN1CCN(Cc2ccc(-c3cnc(Nc4ccc(C#Cc5cc(NC(=O)C6CCCCC6)ccn5)cc4)nc3N[C@H]3CC[C@H](O)CC3)cc2)CC1 [UNC3873A] | 10 to 100 nM | 10 to 100 nM | < 10 nM | – | – | – | – |
| CN1CCC(N2CC=C(c3ccc(Nc4ncc(-c5ccccn5)c(N[C@H]5CC[C@H](O)CC5)n4)cc3)CC2)CC1 [UNC5052A] | – | – | – | 100 to 1000 nM | 100 to 1000 nM | 10 to 100 nM | – |
| CN1CCC(N2CCC(c3ccc(Nc4ncc(-c5ccccn5)c(N[C@H]5CC[C@H](O)CC5)n4)cc3)CC2)CC1 [UNC5072A] | – | – | – | 100 to 1000 nM | 100 to 1000 nM | 10 to 100 nM | – |
| CC(C)N1CCC(=Cc2ccc(-c3cnc(Nc4ccc(F)cc4)nc3N[C@H]3CC[C@H](O)CC3)nc2)CC1 [UNC4397A] | – | – | – | – | – | – | IC50 (Tyro3; Table 1, read-out: Tyro3 IC50): < 10 nM; IC50 (Axl; Table 1): < 10 nM; IC50 (Mer; Table 1): < 10 nM |
| O[C@H]1CC[C@H](Nc2nc(Nc3ccc(C#Cc4cc(-c5ncc[nH]5)ccn4)cc3)ncc2-c2ccccn2)CC1 [UNC4357A] | – | – | – | – | – | – | IC50 (Tyro3; Table 4, read-out: Tryo3 IC50): 100 to 1000 nM; IC50 (Axl; Table 4): 1000 to 30000 nM; IC50 (Mer; Table 4): 100 to 1000 nM |
| CC(C)Nc1ccnc(C#Cc2ccc(Nc3ncc(-c4ccccn4)c(N[C@H]4CC[C@H](O)CC4)n3)cc2)c1 [UNC4364A] | – | – | – | – | – | – | IC50 (Tyro3; Table 4, read-out: Tryo3 IC50): 10 to 100 nM; IC50 (Axl; Table 4): 100 to 1000 nM; IC50 (Mer; Table 4): 10 to 100 nM |
| CN1CCN(Cc2ccc(-c3cnc(Nc4ccc(C#Cc5cc(NC(=O)C6CC6)ccn5)cc4)nc3N[C@H]3CC[C@H](O)CC3)cc2)CC1 [UNC3622A] | < 10 nM | < 10 nM | < 10 nM | – | – | – | – |
| O[C@H]1CC[C@H](Nc2nc(Nc3ccc(C4=CCOCC4)cc3)ncc2-c2ccccn2)CC1 [UNC4434A] | – | – | – | 100 to 1000 nM | 100 to 1000 nM | 10 to 100 nM | – |
| O[C@H]1CC[C@H](Nc2nc(Nc3ccc(C#Cc4cc(-c5cncnc5)ccn4)cc3)ncc2-c2ccccn2)CC1 [UNC4362A] | – | – | – | – | – | – | IC50 (Tyro3; Table 4, read-out: Tryo3 IC50): 100 to 1000 nM; IC50 (Axl; Table 4): 100 to 1000 nM; IC50 (Mer; Table 4): 10 to 100 nM |
| CC(C)C(=O)Nc1ccnc(C#Cc2ccc(Nc3ncc(-c4ccc(CN5CCN(C)CC5)cc4)c(N[C@H]4CC[C@H](O)CC4)n3)cc2Cl)c1 [UNC4047A] | < 10 nM | < 10 nM | < 10 nM | – | – | – | – |
| CC(=O)Nc1ccnc(C#Cc2ccc(Nc3ncc(-c4ccc(CN5CCN(C)CC5)cc4)c(N[C@H]4CC[C@H](O)CC4)n3)cc2)c1 [UNC3874A] | 10 to 100 nM | 100 to 1000 nM | 10 to 100 nM | – | – | – | – |
| CC(C)C(=O)Nc1ccnc(C#Cc2ccc(Nc3ncc(-c4ccccn4)c(N[C@H]4CC[C@H](O)CC4)n3)cc2)c1 [UNC4042A] | < 10 nM | < 10 nM | < 10 nM | – | – | – | – |
| O[C@H]1CC[C@H](Nc2nc(Nc3ccc(C4=CCNCC4)cc3)ncc2-c2ccccn2)CC1 [UNC4402A] | – | – | – | 100 to 1000 nM | 1000 to 30000 nM | 100 to 1000 nM | – |
